In ChEMBL document CHEMBL3804826, “MALT1 Inhibitors May Potentially Treat Lymphomas and Autoimmune Disorders” (ACS Med Chem Lett, 2016):

Tests used:
[1] = biological target: Baculoviral IAP repeat-containing protein 3/Mucosa-associated lymphoid tissue lymphoma translocation protein 1 (Homo sapiens, UniProt Q13489+Q9UDY8); assay: Inhibition of cIAP2-MALT1 (unknown origin) expressed in HEK293 cells assessed as inhibition of NFkappaB signaling after 24 hrs by luciferase reporter gene assay; assay type: cell-based
[2] = biological target: T1, Mucosa-associated lymphoid tissue lymphoma translocation protein 1 (Homo sapiens, UniProt Q9UDY8); assay: Inhibition of MALT1 (unknown origin) expressed in human Jurkat Clone K22 29Q_H23 cells assessed as IL2 production preincubated for 30 mins followed by PMA stimulation for 5.5 hrs by luciferase reporter gene assay; assay type: cell-based
T1 sequence (Q9UDY8 whole entry): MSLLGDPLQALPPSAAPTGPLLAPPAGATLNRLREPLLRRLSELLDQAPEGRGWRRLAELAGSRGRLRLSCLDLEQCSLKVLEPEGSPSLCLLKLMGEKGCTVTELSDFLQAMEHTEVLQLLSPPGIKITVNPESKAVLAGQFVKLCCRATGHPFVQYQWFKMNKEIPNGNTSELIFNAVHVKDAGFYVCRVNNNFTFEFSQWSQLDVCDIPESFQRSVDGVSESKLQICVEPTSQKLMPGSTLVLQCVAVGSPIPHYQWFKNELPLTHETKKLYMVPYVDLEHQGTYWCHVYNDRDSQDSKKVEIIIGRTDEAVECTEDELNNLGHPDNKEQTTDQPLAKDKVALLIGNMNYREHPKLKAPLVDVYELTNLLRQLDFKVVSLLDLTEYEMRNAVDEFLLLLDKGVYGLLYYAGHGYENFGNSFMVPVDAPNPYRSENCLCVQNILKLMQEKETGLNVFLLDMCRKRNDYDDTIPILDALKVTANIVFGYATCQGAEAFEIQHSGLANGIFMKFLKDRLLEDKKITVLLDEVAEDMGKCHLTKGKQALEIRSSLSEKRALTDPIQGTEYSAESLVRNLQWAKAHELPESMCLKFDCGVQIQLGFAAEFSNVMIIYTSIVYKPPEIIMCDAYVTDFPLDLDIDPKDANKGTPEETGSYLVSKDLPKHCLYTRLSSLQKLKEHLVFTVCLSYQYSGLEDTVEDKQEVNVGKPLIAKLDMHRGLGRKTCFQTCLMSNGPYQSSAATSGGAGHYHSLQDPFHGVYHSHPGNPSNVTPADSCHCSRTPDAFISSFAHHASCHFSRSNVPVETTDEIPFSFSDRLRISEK

Sequence of Baculoviral IAP repeat-containing protein 3/Mucosa-associated lymphoid tissue lymphoma translocation protein 1 (Q13489 whole entry, one chain of several): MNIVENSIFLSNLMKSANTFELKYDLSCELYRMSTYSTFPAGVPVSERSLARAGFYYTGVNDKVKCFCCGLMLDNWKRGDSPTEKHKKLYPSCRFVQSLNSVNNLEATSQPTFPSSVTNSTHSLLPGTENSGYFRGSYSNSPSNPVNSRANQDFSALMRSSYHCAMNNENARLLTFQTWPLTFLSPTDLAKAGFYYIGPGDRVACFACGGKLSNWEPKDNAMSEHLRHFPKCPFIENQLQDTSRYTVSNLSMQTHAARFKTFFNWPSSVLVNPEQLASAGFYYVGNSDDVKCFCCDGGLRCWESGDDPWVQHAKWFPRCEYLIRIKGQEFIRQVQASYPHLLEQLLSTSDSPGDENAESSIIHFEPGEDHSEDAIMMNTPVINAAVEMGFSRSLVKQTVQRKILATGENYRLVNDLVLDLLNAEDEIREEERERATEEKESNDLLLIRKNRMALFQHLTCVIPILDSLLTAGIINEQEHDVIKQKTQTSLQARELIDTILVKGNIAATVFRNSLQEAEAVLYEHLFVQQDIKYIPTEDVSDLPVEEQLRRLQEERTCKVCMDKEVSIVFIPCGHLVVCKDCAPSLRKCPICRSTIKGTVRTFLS

Compound	IC50 [1] [nM]	IC50 [2] [nM]
COCC(c1c(NC(=O)Nc2cnc(-n3nccn3)c(Cl)c2)cnc2cc(Cl)nn12)C1CC1 (stereo unspecified)	84	28
CC(C)c1c(NC(=O)Nc2cnc(N3CCCS3(=O)=O)c(C(F)(F)F)c2)cnc2cc(Cl)nn12	54	248
CO[C@@H](C)c1c(NC(=O)Nc2cncc(C(F)(F)F)c2)cnc2cc(C)nn12	132	52
